# Data as given in patent US8927499B2, “Glycine derivative capable of inhibiting melanin formation and composition using the same” (Corum Inc., priority 2010, dated 2015).
# Where a SMILES comes first, the peptide text is derived from it. [ ]: non-standard residue; d: D form. Sar = CNCC(=O)O
# Columns and labels:
# [1] = Color stability test (accelerated, 45° C. oven); type: physicochemical
# Experimental: The test samples (compounds (II), (III), and (IV)) and the reference sample are separately dissolved in water and a buffer solution with pH=6 to prepare 0.5 wt % solutions. The buffer solution with pH=6 is a mixture solution of 3.8 ml 0.1M citric acid and 16.2 ml citrate. […] of a test sample are dissolved in the mixture solution to prepare a 0.5 wt % solution. Then, the solutions are placed in a 45° C. oven to perform an accelerated color stability test. After 14 and 28 days, the spectrophotometer is used to measure the light transmittance of these solutions at 440 nm.
# B16-F10 cells = assay: Melanogenesis inhibition test; type: cell-based, Mus musculus; settings: 3 days, OD 405 nm, tyrosine + α-MSH stimulated
# Experimental: Melanogenesis Inhibition Test In the melanogenesis inhibition test, Kojic acid is used as the positive control. Compounds (II), (III), and (IV) and ascorbic acid derivative are evaluated regarding their whitening effect under a concentration of no cytotoxicity to test the melanogenesis inhibiting ability. B16-F10 B16-F10 cells are placed in a 96-well plate and each well comprises 5000 cells (5000 cells/well). The cells are incubated at 37° C. in 5% CO2 and 10% FBS DMEM (Fetal Bovine Serum Dulbecco's modified Eagle's medium) overnight to allow the cells to attach to the wells. Melanin production rate (%) is defined by the following equation: [formula] where ODT represents the optical density of the test sample at the wavelength 405 nm by the spectrophotometer; ODB represents the optical density of the blank control at 405 nm; ODN represents the optical density of the negative control at 405 nm. The negative control comprises 0.1 mg/ml of tyrosine and 1 μM of α-MSH (α-melanocyte stimulating hormone). The blank control comprises 0.1 mg/ml of tyrosine but no α-MSH. The test sample is prepared by stocking 5 wt % of compound (II), (III), or (IV) in phenol red free DMEM and 5 wt % FBS no phenol red DMEM with 0.1 mg/ml tyrosine and 1 μM α-MSH is prepared and filtered by a 0.22 μm filter. 0.1 mg/ml tyrosine may cause the medium over saturated and thus centrifugal filtration is required. The testing sample was prepared in the medium mentioned above. Until cells were at full confluence, they were treated with test samples and reference samples (prepared above) 100 μL each well for 3 days. After 3 days incubation, 100 μL 1N NaOH is added in each well. The solution is placed on a shaking table at least 10 minutes. The optical density of the test sample at 405 nm is measured. The positive control is Kojic acid (500 ppm concentration). Based on student's t-test, the P value is less than 0.05.
# [2] = tested on: 3T3 (Swiss albino mouse fibroblast) cells; assay: Cytotoxicity test by MTT assay (3T3); type: cell-based; settings: 3T3 and B16-F10 cells, compared with ascorbic acid derivative known to have no apparent cytotoxicity
# Experimental: The cytotoxicity test is evaluated by MTT assay.
# [3] = 0.5 wt % aqueous solution, 14 days
# [4] = 0.5 wt % aqueous solution, 28 days
# [5] = 0.5 wt % in citric acid buffer solution pH = 6, 14 days
# [6] = 0.5 wt % in citric acid buffer solution pH = 6, 28 days
Structure (SMILES),"Transmittance % (440 nm) [1, 3] [%]","Transmittance % (440 nm) [1, 4] [%]","Transmittance % (440 nm) [1, 5] [%]","Transmittance % (440 nm) [1, 6] [%]",melanin production rate % ± standard deviation (B16-F10 cells; sample concentration 0.2%) [%],melanin production rate % ± standard deviation (B16-F10 cells; sample concentration 0.4%) [%],safety of using (cytotoxicity) [2]
O=C1O[C@H]([C@@H](O)CO)C(O)=C1O [Ascorbic acid],37.8,20.8,0.7,2.1,–,–,–
OC[C@H]1O[C@@H](Oc2ccc(O)cc2)[C@H](O)[C@@H](O)[C@@H]1O [arbutin],96.7,95.4,–,–,–,–,–
O=c1cc(CO)occ1O [Kojic acid],94.9,81,34.8,4.0,–,–,–
CCOC1=C(O)C(=O)O[C@@H]1[C@@H](O)CO [ethyl ascorbic acid],–,–,98.6,97.5,86.4 ± 2.6,78.9 ± 6.3,–
NCCC(=O)N[C@@H](Cc1cnc[nH]1)C(=O)O [carnosine],–,–,–,–,129 ± 1.7,141 ± 10.5,–
"CC(=O)NCC(=O)NCCCC(=O)O [Compound (III), 4-(2-Acetylamino-acetylamino)-butyric acid]",99.6,99.5,100,99.9,70.4 ± 10.0,14.2 ± 3.0,the same as that of ascorbic acid derivative
"O=C1O[C@H]([C@@H](O)CO)C(O)=C1O[C@H]1O[C@H](CO)[C@@H](O)[C@H](O)[C@H]1O [ascorbic acid 2-glucoside (AA2G), ascorbic acid 2-glucoside]",97.8,96.9,–,–,86.8 ± 3.4,76.2 ± 10.5,–
"CC(=O)NCC(=O)N(C)CC(=O)O [Compound (IV), [(2-Acetylamino-acetyl)-methyl-amino]-acetic acid] (Ac-Gly-[Sar]-OH)",99.7,100,100,100,60.8 ± 22.3,15.0 ± 5.6,the same as that of ascorbic acid derivative
"CC(=O)NCC(=O)NCCC(=O)O [Compound (II), 3(2-acetylamino-acetylamino)-propionic acid]",98.9,99.8,99.4,99.3,64.7 ± 12.8,11.0 ± 2.9,the same as that of ascorbic acid derivative
O=C1O[C@H]([C@@H](O)CO)C(O)=C1OP(=O)([O-])[O-].[Mg+2] [ascorbic acid 2-phosphate magnesium],–,–,85.6,80.9,105.3 ± 3.4,88.4 ± 11.4,–
